EP4471048A1, “PEPTIDE INHIBITORS OF INTERLEUKIN-23 RECEPTOR” (Zealand Pharma A/S, priority 2023, dated 2024)

Assays:
[1] = Peptide stability in simulated gastric fluid (SGF); format: in vitro ADME; settings: pig, simulated gastric fluid (SGF) with porcine pepsin (3.2 g/L), 37 °C, porcine pepsin; for remaining at 4 h, 10 µM: pH 1.2, 4 h
How it was run: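 Peptide incubated at 37 °C with gentle shaking in SGF (NaCl, pH 1.2). Samples centrifuged, diluted and analysed by LC-HRMS; percent remaining at each timepoint from absolute peak areas relative to time zero, with 4 h as the reference point.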

human IL-23R = target: T1, human IL-23R (Homo sapiens, UniProt Q5VWK5); assay: biochemical
T1 sequence (Q5VWK5 22-629): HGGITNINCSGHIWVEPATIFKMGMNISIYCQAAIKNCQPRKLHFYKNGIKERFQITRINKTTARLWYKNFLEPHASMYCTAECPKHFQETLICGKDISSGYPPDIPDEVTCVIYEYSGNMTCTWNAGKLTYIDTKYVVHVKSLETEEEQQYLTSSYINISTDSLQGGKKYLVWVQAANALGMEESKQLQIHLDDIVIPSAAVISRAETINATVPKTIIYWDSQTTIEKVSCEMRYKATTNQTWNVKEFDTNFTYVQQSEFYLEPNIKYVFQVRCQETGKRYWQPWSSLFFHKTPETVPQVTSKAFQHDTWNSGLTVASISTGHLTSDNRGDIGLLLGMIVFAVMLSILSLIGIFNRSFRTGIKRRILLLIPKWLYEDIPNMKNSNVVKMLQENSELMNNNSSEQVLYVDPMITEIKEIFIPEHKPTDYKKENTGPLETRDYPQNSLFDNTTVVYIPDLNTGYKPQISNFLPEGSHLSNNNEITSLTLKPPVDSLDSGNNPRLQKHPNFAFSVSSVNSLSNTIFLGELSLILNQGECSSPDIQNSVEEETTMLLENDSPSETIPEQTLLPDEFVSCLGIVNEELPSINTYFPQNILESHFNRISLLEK
How it was run: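 Membranes from HEK293 cells stably expressing Nluc-tagged human IL-23R were incubated 2 h at room temperature with test compound and a fluorophore-labelled tracer. After substrate addition, loss of BRET (TAMRA over luciferase emission) reported tracer displacement. A 4PL fit gave IC50 values.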

[2] = Peptide stability in simulated intestinal fluid (SIF); format: in vitro ADME; settings: 37 °C, porcine pancreatin
How it was run: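 Peptides were incubated at 37 °C with gentle shaking in pH 6.8 potassium phosphate SIF containing porcine pancreatin (10 g/L). Supernatants were analysed by LC-HRMS. Percent remaining at each timepoint, including 4 h, was calculated relative to time zero from absolute peak areas.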

remaining at 1 h, 10 µM ([1]; pH 1.2, 10 µM, pH 1.2, 1 h, read-out: SGF (% remaining 1 h)): 104%
remaining at 4 h, 10 µM ([1]; pH 1.2, 10 µM, read-out: SGF (% remaining 4 h)): 97%
remaining at 4 h, 10 µM ([1]; pH 1.2, SAR tables, % peptide remaining, 10 µM, read-out: SGF (% after 4 h)): 104%
% displacement (hIL-23R NIuc) (human IL-23R): 103%
IC50 (human IL-23R): 0.04 nM
SIF (% remaining 4 h) ([2]; 10 µM, pH 6.8, 4 h): 0%
remaining at 1 h, 10 µM ([2]; pig, pH 6.8, 1 h): 23%
remaining at 4 h, 10 µM ([2]; pig, SAR tables, % peptide remaining, pH 6.8, 4 h, read-out: SIF (% after 4 h)): 0%
Structure (SMILES): CC(C)C[C@]1(C)NC(=O)[C@H](Cc2ccc3ccccc3c2)NC(=O)[C@H](Cc2ccc(OCCN)cc2)NC(=O)[C@@H]2CCC(=O)N[C@H](CCCCNC(=O)CC[C@@H](C(=O)N[C@@H](CCN)C(=O)N[C@@H](Cc3cccnc3)C(N)=O)NC1=O)C(=O)N[C@@H]([C@@H](C)O)C(=O)N[C@@H](C(C)C)C(=O)N[C@@H](Cc1c[nH]c3ccccc13)C(=O)N[C@@H](CCC(N)=O)C(=O)N2 [Compound 1, [{d}K](1c)(6c)^†TVWQE(6c)[Y(2-aminoethoxy)][2-Nal][2-Me-Leu]E(1c)[Dab][3-(3-Pyridyl)-Ala]-[NH2]]
